Several values for one entry are separate records, joined by “and”; a condition that tells them apart may be missing. Identical values can stand only once. Toxic doses and inconclusive results are not listed. Cut-off read from the data, not from the text of the source: active = T/C of 150% or more; inactive = T/C below 125%.
Tested on: L1210 leukemia ip in BDF1 mice, survival T/C
Assay: NCI In Vivo Anticancer Drug Screen. Data for tumor model L1210 Leukemia (intraperitoneal) in B6D2F1 (BDF1) mice
Details: higher = longer survival
Method in brief: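 Tumor cells were implanted, animals were treated, and survival was followed. The result divides the treated measurement by the vehicle-control measurement.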

[1] = endpoint: mean survival time, dose: 100.0 mg/kg/injection, schedule: Q04DX003 (ip), vehicle: saline with Tween-80
[2] = endpoint: mean survival time, dose: 400.0 mg/kg/injection, schedule: Q01DX001 (ip), vehicle: saline
[3] = endpoint: mean survival time, dose: 100.0 mg/kg/injection, schedule: Q01DX001 (ip), vehicle: Klucel (hydroxypropylcellulose) (HPC)
[4] = endpoint: mean survival time, dose: 200.0 mg/kg/injection, schedule: Q01DX001 (ip), vehicle: Klucel (hydroxypropylcellulose) (HPC)
[5] = endpoint: mean survival time, dose: 50.0 mg/kg/injection, schedule: Q01DX009 (ip), vehicle: Klucel (hydroxypropylcellulose) (HPC)
[6] = endpoint: mean survival time, dose: 100.0 mg/kg/injection, schedule: Q01DX009 (ip), vehicle: Klucel (hydroxypropylcellulose) (HPC)
[7] = endpoint: mean survival time, dose: 100.0 mg/kg/injection, schedule: Q04DX003 (ip), vehicle: Klucel (hydroxypropylcellulose) (HPC)
[8] = endpoint: mean survival time, dose: 200.0 mg/kg/injection, schedule: Q01DX009 (ip), vehicle: Klucel (hydroxypropylcellulose) (HPC)
[9] = endpoint: mean survival time, dose: 200.0 mg/kg/injection, schedule: Q04DX003 (ip), vehicle: Klucel (hydroxypropylcellulose) (HPC)
[10] = endpoint: mean survival time, dose: 400.0 mg/kg/injection, schedule: Q04DX003 (ip), vehicle: Klucel (hydroxypropylcellulose) (HPC)
[11] = endpoint: mean survival time, dose: 50.0 mg/kg/injection, schedule: Q01DX001 (ip), vehicle: saline
[12] = endpoint: mean survival time, dose: 100.0 mg/kg/injection, schedule: Q01DX001 (ip), vehicle: saline
[13] = endpoint: mean survival time, dose: 200.0 mg/kg/injection, schedule: Q01DX001 (ip), vehicle: saline

Measured: T/C

CO[C@H]1C[C@H](O[C@H]2CC[C@]3(C=O)[C@H]4CC[C@]5(C)[C@@H](C6=CC(=O)OC6)CC[C@]5(O)[C@@H]4CC[C@]3(O)C2)O[C@H](C)[C@H]1O[C@@H]1O[C@H](CO)[C@@H](O)[C@H](O)[C@H]1O
inactive: endpoint: mean survival time, dose: 0.25 mg/kg/injection, schedule: Q01DX015 (ip), vehicle: carboxymethylcellulose (CMC) 88 % of control | endpoint: mean survival time, dose: 0.5 mg/kg/injection, schedule: Q01DX001 (ip), vehicle: saline 100 % of control | endpoint: mean survival time, dose: 0.5 mg/kg/injection, schedule: Q01DX015 (ip), vehicle: carboxymethylcellulose (CMC) 113 % of control | endpoint: mean survival time, dose: 0.5 mg/kg/injection, schedule: Q04DX003 (ip), vehicle: saline 100 % of control | endpoint: mean survival time, dose: 1.0 mg/kg/injection, schedule: Q01DX015 (ip), vehicle: carboxymethylcellulose (CMC) 89 % of control | endpoint: mean survival time, dose: 1.0 mg/kg/injection, schedule: Q04DX003 (ip), vehicle: saline 103 % of control | endpoint: mean survival time, dose: 2.0 mg/kg/injection, schedule: Q01DX015 (ip), vehicle: carboxymethylcellulose (CMC) 97 % of control | endpoint: mean survival time, dose: 4.0 mg/kg/injection, schedule: Q01DX001 (ip), vehicle: saline 98 % of control | endpoint: median survival time, dose: 0.5 mg/kg/injection, schedule: Q01DX005 (ip), vehicle: water 104 % of control | endpoint: median survival time, dose: 1.0 mg/kg/injection, schedule: Q01DX005 (ip), vehicle: water 103 % of control | endpoint: median survival time, dose: 2.0 mg/kg/injection, schedule: Q01DX005 (ip), vehicle: water 106 % of control

COc1ccc(CC2=NCCN2)cc1
inactive: endpoint: mean survival time, dose: 25.0 mg/kg/injection, schedule: Q04DX003 (ip), vehicle: saline with Tween-80 91 % of control | endpoint: mean survival time, dose: 50.0 mg/kg/injection, schedule: Q04DX003 (ip), vehicle: saline with Tween-80 93 % of control | [1] 101 % of control and 89 % of control

CCCCCCCCCCCCCCCCCCOC(C)OCCCCCCCCCCCCCCCCCC
inactive: [1] 89 % of control | endpoint: mean survival time, dose: 200.0 mg/kg/injection, schedule: Q04DX003 (ip), vehicle: saline with Tween-80 89 % of control | endpoint: mean survival time, dose: 400.0 mg/kg/injection, schedule: Q04DX003 (ip), vehicle: saline with Tween-80 87 % of control

CCCCCCCCCCCCn1ncc2ccc([N+](=O)[O-])cc21
inactive: [2] 96 % of control

CCCNC(=O)OC1CCS(=O)(=O)C1 (stereo not drawn)
inactive: endpoint: mean survival time, dose: 100.0 mg/kg/injection, schedule: Q04DX002 (ip), vehicle: Klucel (hydroxypropylcellulose) (HPC) 95 % of control | endpoint: mean survival time, dose: 200.0 mg/kg/injection, schedule: Q04DX002 (ip), vehicle: Klucel (hydroxypropylcellulose) (HPC) 100 % of control | endpoint: mean survival time, dose: 400.0 mg/kg/injection, schedule: Q04DX002 (ip), vehicle: Klucel (hydroxypropylcellulose) (HPC) 95 % of control

BrC1C2C3C=CC4C(C=C3)C4C12 (stereo not drawn)
inactive: endpoint: mean survival time, dose: 50.0 mg/kg/injection, schedule: Q01DX001 (ip), vehicle: Klucel (hydroxypropylcellulose) (HPC) 100 % of control and 101 % of control | [3] 98 % of control and 111 % of control | [4] 108 % of control and 93 % of control

COc1ccc(N=CC(=O)c2ccc(C)cc2)c([N+](=O)[O-])c1
inactive: [3] 107 % of control | [4] 104 % of control | endpoint: mean survival time, dose: 400.0 mg/kg/injection, schedule: Q01DX001 (ip), vehicle: Klucel (hydroxypropylcellulose) (HPC) 95 % of control

CC(C)(C)c1ccc(SSc2ccc(C(C)(C)C)cc2)cc1
inactive: [5] 94 % of control | [6] 94 % of control | [7] 94 % of control | [8] 98 % of control | [9] 91 % of control | endpoint: mean survival time, dose: 400.0 mg/kg/injection, schedule: Q01DX009 (ip), vehicle: Klucel (hydroxypropylcellulose) (HPC) 96 % of control | [10] 92 % of control

CN1CCSC1=S
inactive: [5] 92 % of control | [6] 100 % of control | [7] 105 % of control | [8] 105 % of control | [9] 105 % of control | [10] 94 % of control

Cc1[nH]c(=O)[nH]c(=O)c1CN(C)Cc1cc(Cl)cc(Cl)c1O
inactive: [11] 95 % of control | [12] 95 % of control | [13] 95 % of control | [2] 101 % of control

CC(=O)[C@H]1CC[C@H]2[C@@H]3CCC4=CC(=O)CC[C@]4(C)[C@H]3CC[C@]12C
inactive: endpoint: mean survival time, dose: 125.0 mg/kg/injection, schedule: Q01DX Z (sc), vehicle: steriod suspending solution 97 % of control | endpoint: mean survival time, dose: 250.0 mg/kg/injection, schedule: Q01DX Z (sc), vehicle: steriod suspending solution 91 % of control | endpoint: mean survival time, dose: 500.0 mg/kg/injection, schedule: Q01DX Z (sc), vehicle: steriod suspending solution 96 % of control | endpoint: mean survival time, dose: 1000.0 mg/kg/injection, schedule: Q01DX Z (sc), vehicle: steriod suspending solution 92 % of control

[Mn+2].[NH-]CC(=O)O.[NH-]CC(=O)O
inactive: [12] 96 % of control

Cc1ccc2[nH]c3c(c2c1)CCCC3
inactive: [11] 101 % of control | [12] 101 % of control | [13] 107 % of control | [2] 101 % of control

Reference: PubChem BioAssay AID248 (DTP/NCI, 2004)
